This is an account of results in patent US5618931A, “Acetylenes disubstituted with a 5 substituted dihydronaphthyl group and with an aryl or heteroaryl group having retinoid-like biological activity” (Allergan, priority 1994, dated 1997).

Each structure is given as a SMILES string.

For one assay, the system named is ornithine decarboxylase (ODC), TPA-induced activity.
Assay: not given
Particulars: background statement on retinoic acid; cited from earlier work.
Take `CC1=C(/C=C/C(C)=C/C=C/C(C)=C/C(=O)O)C(C)(C)CCC1` [Retinoic acid]: the “inhibition of TPA induction of ODC activity (in words)” value is recorded as “inhibits this induction of ODC activity by TPA”.

Another assay has the same test system. Kind of assay: ODC assay: inhibition of TPA induction of ornithine decarboxylase. In kind it is biochemical. Particulars: concentration of the test compound which causes 80% inhibition in the ODC assay (TPA-induced ODC). The text has this:
The retinoic acid-like activity of these compounds is confirmed through the classic measure of retinoic acid activity involving the effects of retinoic acid on ornithine decarboxylase. The original work on the correlation between retinoic acid and decrease in cell proliferation was done by Verma & Boutwell, Cancer Research, 1977, 37,2196-2201. That reference discloses that ornithine decarboxylase (ODC) activity increased precedent to polyamine biosynthesis. It has been established elsewhere that increases in polyamine synthesis can be correlated or associated with cellular proliferation. Thus, if ODC activity could be inhibited, cell hyperproliferation could be modulated. Although all cases for ODC activity increases are unknown, it is known that 12-O-tetradecanoylphorbol-13-acetate (TPA) induces ODC activity. […] Activity of exemplary compounds of the present invention in the above-described ODC assay is disclosed in Table 2 which provides the IC80 concentration for the respective exemplary compound. ("IC80 " is that concentration of the test compound which causes 80% inhibition in the ODC assay. By analogy, IC60, for example, is that concentration of the test compound which causes 60% inhibition in the ODC assay.)
With `CCOC(=O)c1ccc(C#Cc2ccc3c(c2)C(OS(=O)(=O)C(F)(F)F)=CCC3(C)C)cc1` [Compound 66, Ethyl 4-[(5-trifluoromethylsulfonyloxy-7,8-dihydro-8,8-dimethylnapth-3-yl)ethynyl]benzoate], the IC80 conc is on record as 17.00 nmols.

`CCOC(=O)c1ccc(C#Cc2ccc3c(c2)C(C)(C)CC=C3OS(=O)(=O)C(F)(F)F)cc1` [Compound 87, Ethyl 4-[(5-trifluoromethylsulfonyloxy-7,8-dihydro-8,8-dimethylnaphth-2-yl)ethynyl]benzoate] registered an IC80 conc of 16.80 nmols.

Compound `CCOC(=O)c1ccc(C#Cc2ccc3c(c2)C(C)(C)CC=C3OC(C)=O)cc1` [Compound 105, Ethyl 4-[(5-acetoxy-7,8-dihydro-8,8-dimethylnaphth-2-yl)ethynyl]benzoate] yielded an IC80 conc of 0.76 nmols.

Compound `CCOC(=O)c1ccc(C#Cc2ccc3c(c2)C(OC(C)=O)=CCC3(C)C)cc1` [Compound 126, Ethyl 4-[(5-acetoxy-7,8-dihydro-8,8-dimethylnaphth-3-yl)ethynyl]benzoate] displayed an IC80 conc of 0.58 nmols.

For `CCOC(=O)c1ccc(C#Cc2ccc3c(c2)C(Sc2ccccc2)=CCC3(C)C)cc1` [Compound 155, Ethyl 4-[(7,8-dihydro-8,8-dimethyl-5-phenylthionaphth-3yl)ethynyl]benzoate], the IC80 conc worked out at 2.3 nmols.

Compound `CCOC(=O)c1ccc(C#Cc2ccc3c(c2)C(S(=O)(=O)c2ccccc2)=CCC3(C)C)cc1` [Compound 157, Ethyl 4-[(7,8-dihydro-8,8-dimethyl-5-phenylsulfonylnaphth-3-yl)ethynyl]benzoate] had an IC80 conc below 0.1 nmols.
